# Data reported in ChEMBL document CHEMBL5357036, “Latest developments in coumarin-based anticancer agents: mechanism of action and structure-activity relationship studies” (RSC Med Chem, 2024).
# Legend:
# [1] = test system: DU-145; test: Anticancer activity against human DU-145 cells assessed as reduction in cell viability by SRB assay; format: functional, cell-based
# [2] = test system: MCF7; test: Anticancer activity against human MCF7 cells assessed as reduction in cell viability by SRB assay; format: functional, cell-based
# [3] = test system: HepG2; test: Anticancer activity against human HepG2 cells assessed as reduction in cell viability by SRB assay; format: functional, cell-based
# [4] = test system: A549; test: Anticancer activity against human A549 cells assessed as reduction in cell viability by SRB assay; format: functional, cell-based
# [5] = test system: MCF7-DOX; test: Antiproliferative activity against human MCF7-DOX cells assessed as reduction in cell viability by SRB assay; format: functional, cell-based
# [6] = test system: MCF7; test: Anticancer activity against human MCF7 cells assessed as inhibition of cell proliferation measured after 72 hrs by MTT assay; format: functional, cell-based; conditions: MCF7, 72 h
# [7] = test system: SGC-7901; test: Antiproliferative activity against human SGC-7901 cells assessed as cell growth inhibition; format: functional, cell-based
# [8] = test system: HepG2; test: Antiproliferative activity against human HepG2 cells assessed as cell growth inhibition incubated for 48 hrs by MTT assay; format: functional, cell-based
# [9] = Oral bioavailability in Sprague-Dawley rat at 10 mg/kg measured up to 24 hrs by LC-MS/MS analysis; format: ADME, organism-based; conditions: in vivo
# [10] = test system: PANC-1; test: Antiproliferative activity against human PANC-1 cells assessed as cell growth inhibition incubated for 48 hrs by MTT assay; format: functional, cell-based; conditions: PANC-1, 48 h
# [11] = test system: A549 (Homo sapiens); test: Antiproliferative activity against human A549 cells assessed as cell growth inhibition incubated for 48 hrs by MTT assay; conditions: A549, 48 h
# [12] = test system: MCF7; test: Cytotoxicity against human MCF7 cells assessed as inhibition of cell growth incubated for 72 hrs by MTT assay; format: functional
# [13] = test system: MDA-MB-231; test: Cytotoxicity against human MDA-MB-231 cells assessed as inhibition of cell growth incubated for 72 hrs by MTT assay; format: functional
# [14] = test system: MT4; test: Cytotoxicity against human MT4 cells assessed as inhibition of cell growth incubated for 72 hrs by MTT assay; format: functional
# [15] = test system: MCF7; test: Cytotoxicity against human MCF7 cells assessed as reduction in cell viability incubated for 48 hrs by MTT assay; format: functional, cell-based; conditions: MCF7, 48 h
# [16] = test system: HeLa; test: Cytotoxicity against human HeLa cells assessed as cell growth inhibition; format: functional, cell-based
# [17] = test system: MCF7; test: Cytotoxicity against human MCF7 cells assessed as inhibition of cell growth by resazurin microplate assay; format: functional, cell-based
# [18] = test system: HCT-116; test: Cytotoxicity against human HCT-116 cells assessed as reduction in cell growth measured after 48 hrs by MTT assay; format: functional, cell-based; conditions: HCT-116, 48 h
# [19] = test system: HepG2; test: Induction of apoptosis in human HepG2 cells assessed as increase in apoptotic cells at 10 uM by Annexin V-FITC staining based flow cytometry (reference value: 13.76 %); format: functional
# [20] = test system: HepG2; test: Antiproliferative activity against human HepG2 cells assessed as reduction in cell viability incubated for 48 hrs by MTT assay; format: functional, cell-based; conditions: HepG2, 48 h
# [21] = test system: A-375; test: Anticancer activity against human A-375 cells assessed as inhibition of cell growth incubated for 48 hrs by MTT assay; format: functional, cell-based; conditions: A-375, 48 h
# [22] = test system: A549; test: Anticancer activity against human A549 cells assessed as inhibition of cell growth incubated for 48 hrs by MTT assay; format: functional, cell-based; conditions: A549, 48 h
# [23] = test system: MCF7; test: Anticancer activity against human MCF7 cells assessed as inhibition of cell growth incubated for 48 hrs by MTT assay; format: functional, cell-based; conditions: MCF7, 48 h
# [24] = test system: HeLa; test: Cytotoxicity against human HeLa cells assessed as growth inhibition measured after 48 hrs by MTT assay; format: functional, cell-based
# [25] = test system: MDA-MB-231; test: Antiproliferative activity against human MDA-MB-231 cells assessed as reduction in cell proliferation incubated for 72 hrs by CellTiter-Glo reagent based assay; format: functional; conditions: MDA-MB-231, 72 h
# [26] = Antiproliferative activity against human H357 cells assessed as reduction in cell proliferation incubated for 72 hrs by CellTiter-Glo reagent based assay; format: functional; conditions: H357, 72 h
# [27] = test system: Bel-7402; test: Antiproliferative activity against human Bel-7402 cells assessed as reduction in cell viability incubated for 48 hrs by MTT assay; format: functional, cell-based; conditions: Bel-7402, 48 h
# [28] = test system: Hep 3B2; test: Antiproliferative activity against human Hep3B cells assessed as reduction in cell viability incubated for 48 hrs by MTT assay; format: functional, cell-based
# [29] = test system: MHCC97; test: Antiproliferative activity against human MHCC97 cells assessed as inhibition of cell growth measured after 3 days by CellTiter-Glo assay; format: functional, cell-based; conditions: MHCC97, 72 h
# [30] = test system: SMMC-7721; test: Antiproliferative activity against human SMMC-7721 cells assessed as reduction in cell viability incubated for 48 hrs by MTT assay; format: functional, cell-based; conditions: SMMC-7721, 48 h
# [31] = test system: MCF7-DOX; test: Antiproliferative activity against human MCF7-DOX cells assessed as reduction in cell viability incubated for 72 hrs by MTT assay; format: functional, cell-based
# [32] = test system: SK-OV-3; test: Anticancer activity against human SK-OV-3 cells assessed as reduction in cell viability incubated for 24 hrs by MTT assay; format: functional, cell-based; conditions: SK-OV-3, 24 h
# [33] = test system: MCF7; test: Anticancer activity against human MCF7 cells assessed as inhibition of cell proliferation measured after 48 hrs by MTT assay; format: functional, cell-based; conditions: MCF7, 48 h
# [34] = test system: HeLa; test: Anticancer activity against human HeLa cells assessed as inhibition of cell growth by SRB assay; format: functional, cell-based
# [35] = test system: SW-620; test: Anticancer activity against human SW620 cells assessed as reduction in cell viability measured after 72 hrs by MTT assay; format: functional, cell-based; conditions: SW-620, 72 h
# [36] = test system: HCT-116; test: Anticancer activity against human HCT-116 cells assessed as reduction in cell viability measured after 72 hrs by MTT assay; format: functional, cell-based; conditions: HCT-116, 72 h
# [37] = Cytotoxicity against rat H4-II-E cells assessed as reduction in cell viability measured after 24 hrs by MTT assay; format: functional, cell-based; conditions: H4IIE
# [38] = test system: A549; test: Cytotoxicity against human A549 cells assessed as reduction in cell growth by MTT assay; format: functional, cell-based
# [39] = test system: MCF7; test: Cytotoxicity against human MCF7 cells assessed as reduction in cell growth by MTT assay; format: functional, cell-based
structure (smiles),measurement,setting,value
Cc1cc(=O)oc2cc(OCCOCCN3C(=O)/C(=N/O)c4cc(F)ccc43)ccc12,IC50,[1],20.8 µM
same,IC50,[2],11.3 µM
same,IC50,[3],10.3 µM
same,IC50,[4],10.9 µM
same,IC50,[5],14.5 µM
O=C(O)COc1ccc2ccccc2c1/C=C/C(=O)c1cc2c(ccc3ccccc32)oc1=O,IC50,[6],15.4 µM
COc1cc(Cl)ccc1S(=O)(=O)Nc1ccc2oc(=O)ccc2c1,IC50,[7],6.39 µM
same,IC50,[8],4.75 µM
same,bioavailability,[9],49.4%
same,IC50,[10],7.02 µM
same,IC50,[11],4.63 µM
CC(=O)c1cc2cc(Nc3c(C)cc(C)c(-c4cc5ccccc5nc4F)c3C)c(=O)oc2cc1O,GI50,[12],10.5 µM
same,GI50,[13],11.8 µM
same,GI50,[14],12.6 µM
O=c1oc2ccccc2c2c1nc(-c1ccccn1)c1occc12,IC50,[15],8 µM
CN(C)c1ccc2c(c1)O/C(=C(/C#N)c1cc[n+](C)cn1)C=C2C(F)(F)F,IC50,[16],1.1 µM
COc1ccc(-c2cc(-c3cc4ccccc4oc3=O)nc(N)c2C#N)cc1,IC50,[17],14.1 µM
same,IC50,[18],9.9 µM
C/C(=N\Nc1nc(-c2ccccc2)cs1)c1ccc(NS(=O)(=O)c2ccc3oc(=O)ccc3c2)cc1,Activity,[19],1.75%
same,IC50,[20],3.48 µM
Cc1ccc(NCc2cc(=O)oc3ccc4ccccc4c23)cc1,IC50,[21],9.02 µM
same,IC50,[22],4.29 µM
same,IC50,[23],5.17 µM
CCCCOc1ccc2cc(C(=O)NNC(=O)c3c(C)oc4nc(NCCC)n(-c5ccc(C)cc5)c(=O)c34)c(=O)oc2c1,IC50,[24],6.47 µM
C/C(=N\c1ccc(S(N)(=O)=O)cc1)c1cc2ccccc2oc1=O,IC50,[25],7.78 µM
same,IC50,[26],8.68 µM
O=c1oc2ccccc2c(O)c1C(c1cccc(Oc2ccccc2)c1)c1c(O)c2ccccc2oc1=O,IC50,[27],8 µM
same,IC50,[28],9 µM
same,IC50,[29],7 µM
same,IC50,[30],6 µM
Cc1cc(=O)oc2cc(OCCOCCOCCOCN3C(=O)/C(=N/O)c4cc(F)ccc43)ccc12,IC50,[31],18.9 µM
same,IC50,[32],23.8 µM
same,IC50,[33],11.9 µM
Cc1cc(=O)oc2cc(OCCOCCN3C(=O)C(=O)c4cc(F)ccc43)ccc12,IC50,[34],11.5 µM
O=C(OCC#CCOc1no[n+]([O-])c1S(=O)(=O)c1ccccc1)c1cc2ccccc2oc1=O,IC50,[35],1.86 µM
same,IC50,[36],3.46 µM
O=C(Nc1ccc(/C=C/C(=O)c2cc3ccccc3oc2=O)cc1)Nc1ccc(C(F)(F)F)cc1,IC50,[37],1.62 µM
Cc1c(Cc2ccc(NC(=O)Nc3ccccc3Cl)nc2)c(=O)oc2cc(O)c(C(C)(C)C)cc12,IC50,[38],4.38 µM
Cc1c(Cc2ccc(NC(=O)Nc3ccc(Br)cc3)nc2)c(=O)oc2cc(O)c(C(C)(C)C)cc12,IC50,[39],2.56 µM
